According to patent US20250213647A1, “CHEMOKINE RECEPTORS AND ALPHA1 ADRENERGIC RECEPTORS/VASOPRESSIN RECEPTORS 1A HETEROMERS AS DRUG TARGETS FOR DISEASE” (UNIVERSITY OF SOUTH FLORIDA, priority 2022, published 2025):

Target: CCR2 (Homo sapiens, UniProt P41597)
Assay: CCR2 internalization in THP-1 cells (flow cytometry)
Type: cell-based
Parameters: host or cells: THP-1
Conditions: 100 nM CCL2 plus 1 μM PE, 0-45 min at 37° C.; FIG. 7A/B
Experimental: To examine receptor internalization in THP-1 cells, cells were incubated with 100 nM CCL2 or with 100 nM CCL2 plus 1 μM PE for 0-45 min at 37° C. Cells were then cooled on ice and washed with 50 mM glycine buffer, pH 2.7, 150 mM NaCl, followed by washing with ice-cold PBS. Cell surface CCR2 was probed with anti-CCR2 and corresponding secondary Alexa 488-conjugated antibodies. Receptor cell surface expression levels are examined by flow cytometry and expressed as the median fluorescence intensity (MFI) in percent of the MFI measured at 0 min (=100%).

Chain of CCR2 (P41597 whole entry): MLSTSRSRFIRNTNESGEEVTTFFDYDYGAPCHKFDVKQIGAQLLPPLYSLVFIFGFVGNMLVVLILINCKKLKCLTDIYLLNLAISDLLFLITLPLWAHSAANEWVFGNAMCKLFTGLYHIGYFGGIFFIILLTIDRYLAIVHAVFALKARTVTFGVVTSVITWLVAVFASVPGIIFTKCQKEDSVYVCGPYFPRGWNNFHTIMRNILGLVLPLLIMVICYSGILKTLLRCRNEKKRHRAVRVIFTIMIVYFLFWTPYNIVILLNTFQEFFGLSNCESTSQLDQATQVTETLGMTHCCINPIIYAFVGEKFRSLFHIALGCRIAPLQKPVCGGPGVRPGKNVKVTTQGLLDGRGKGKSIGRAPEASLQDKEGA

## CNC[C@H](O)c1cccc(O)c1 [phenylephrine]
  CCR2 cell surface expression, CCL2 plus ligand vs CCL2 alone: significantly reduced CCR2 expression
